Results reported in paper PMC12687421, “Characterisation of an allosteric site in PLCγ enzymes and implications for development of their specific inhibitors” (Biochemical Journal, 2025).

Experiments:
PLCγ1^K491D = target: T1, PLCγ1^K491D (Homo sapiens, UniProt P19174, I813T/K491D); experiment: Microscale thermophoresis (MST) binding, K491D variant; conditions: read-out: estimated Kd, MST, PLCγ1^K491D
T1 construct: made in house; host or cells: Escherichia coli T7 Express lysY/Iq
T1 sequence (P19174 1-1291 isoform P19174-2 K491D/I813T): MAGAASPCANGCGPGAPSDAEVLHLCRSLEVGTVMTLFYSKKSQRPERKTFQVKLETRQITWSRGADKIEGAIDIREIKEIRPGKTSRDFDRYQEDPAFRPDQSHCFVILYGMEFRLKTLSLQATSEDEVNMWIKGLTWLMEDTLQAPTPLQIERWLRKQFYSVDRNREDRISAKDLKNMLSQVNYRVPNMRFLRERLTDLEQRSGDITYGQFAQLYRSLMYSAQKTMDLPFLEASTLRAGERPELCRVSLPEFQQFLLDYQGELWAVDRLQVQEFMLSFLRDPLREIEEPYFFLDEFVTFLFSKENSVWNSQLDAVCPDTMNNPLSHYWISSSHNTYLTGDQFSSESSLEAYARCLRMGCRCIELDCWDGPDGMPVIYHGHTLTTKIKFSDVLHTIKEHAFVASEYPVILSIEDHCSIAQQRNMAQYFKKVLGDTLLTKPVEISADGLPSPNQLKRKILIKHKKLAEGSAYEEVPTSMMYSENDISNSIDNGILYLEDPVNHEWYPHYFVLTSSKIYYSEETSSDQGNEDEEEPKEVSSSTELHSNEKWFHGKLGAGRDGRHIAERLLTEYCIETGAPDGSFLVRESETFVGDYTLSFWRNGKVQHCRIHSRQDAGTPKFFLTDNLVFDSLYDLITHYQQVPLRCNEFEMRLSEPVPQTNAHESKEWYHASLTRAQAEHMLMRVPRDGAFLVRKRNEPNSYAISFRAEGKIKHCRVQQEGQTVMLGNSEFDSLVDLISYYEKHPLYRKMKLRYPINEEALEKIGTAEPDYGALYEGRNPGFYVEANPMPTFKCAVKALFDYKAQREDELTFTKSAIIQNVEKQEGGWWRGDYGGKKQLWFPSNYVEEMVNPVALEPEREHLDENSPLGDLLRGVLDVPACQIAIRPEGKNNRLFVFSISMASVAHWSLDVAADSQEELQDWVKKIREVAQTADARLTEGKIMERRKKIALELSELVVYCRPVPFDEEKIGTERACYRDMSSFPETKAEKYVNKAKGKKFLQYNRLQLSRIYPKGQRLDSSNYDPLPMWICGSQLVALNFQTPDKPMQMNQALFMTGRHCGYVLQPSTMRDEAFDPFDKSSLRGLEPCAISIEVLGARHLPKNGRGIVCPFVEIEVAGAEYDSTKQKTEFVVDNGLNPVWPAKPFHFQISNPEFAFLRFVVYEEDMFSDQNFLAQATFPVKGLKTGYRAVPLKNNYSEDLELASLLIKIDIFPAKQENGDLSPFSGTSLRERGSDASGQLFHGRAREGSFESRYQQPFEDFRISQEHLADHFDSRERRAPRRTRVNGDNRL
Procedure: Proteins were diluted to 200 nM in MST buffer [50 mM Hepes.KOH, 70 mM KCl, 5% (v/v) glycerol, 0.05% (v/v) Tween-20, 2 mM DTT (pH 7.5)] and subsequently labelled by adding an equal volume of 100 nM 2nd generation RED-Tris-NTA labelling dye and incubating for 30 minutes. […] An equal volume of labelled protein was added to each ligand concentration and the mixture taken up into a standard MST capillary. Samples were measured in a Monolith NT.115 pico instrument (Nanotemper) using the Nano-RED channel. Excitation power was set to 5% and MST power set to high. All experiments were performed at 25°C. All data were analysed using the manufacturer’s MO.Control software and repeated at least three times with representative experiments shown.

PLCδ1 = target: T2, PLCδ1 (Homo sapiens, UniProt P51178); experiment: PLC activity assay 1 (A1), PLCδ1; assay type: biochemical; conditions: substrate in solution or in lipid vesicles (Figure 3C, D); except small changes at very high concentration
T2 construct: made in house; host or cells: Escherichia coli T7 Express lysY/Iq
T2 sequence (P51178 1-756): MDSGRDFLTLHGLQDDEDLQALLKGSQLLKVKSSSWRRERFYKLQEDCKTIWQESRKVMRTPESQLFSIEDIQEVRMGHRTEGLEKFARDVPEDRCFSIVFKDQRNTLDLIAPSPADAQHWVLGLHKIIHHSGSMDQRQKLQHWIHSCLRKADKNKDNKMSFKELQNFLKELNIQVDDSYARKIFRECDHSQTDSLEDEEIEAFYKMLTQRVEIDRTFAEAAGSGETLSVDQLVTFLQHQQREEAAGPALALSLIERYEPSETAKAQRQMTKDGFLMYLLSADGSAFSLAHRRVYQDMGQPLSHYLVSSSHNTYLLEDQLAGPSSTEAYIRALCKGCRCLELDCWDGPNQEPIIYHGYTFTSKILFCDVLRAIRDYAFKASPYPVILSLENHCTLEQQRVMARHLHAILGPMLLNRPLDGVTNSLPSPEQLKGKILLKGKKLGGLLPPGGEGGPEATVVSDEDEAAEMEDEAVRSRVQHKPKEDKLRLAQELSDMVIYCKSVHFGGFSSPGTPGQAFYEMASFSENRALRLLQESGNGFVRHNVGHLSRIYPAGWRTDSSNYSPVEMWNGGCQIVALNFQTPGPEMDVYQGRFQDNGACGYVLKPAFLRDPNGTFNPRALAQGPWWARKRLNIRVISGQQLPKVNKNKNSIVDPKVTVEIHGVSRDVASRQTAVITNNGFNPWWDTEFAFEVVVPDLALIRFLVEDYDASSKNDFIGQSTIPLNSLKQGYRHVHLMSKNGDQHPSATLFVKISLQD
Procedure: The effect of nucleotide inhibition on PLC activity was measured using either a membrane-based assay with the fluorescent substrate (XY-69) incorporated into liposomes or using a small soluble substrate, Aldol 518 myo-inositol-1-phosphate (Aldol). Both methods utilised the same PLC assay buffer [20 mM Hepes-KOH, 70 mM KCl, 3 mM EGTA, 2.97 mM CaCl2, 2 mM TCEP and fatty acid-free bovine serum albumin (FAF-BSA; 50 μg/ml) (pH 7.5)]. Both assays were performed in low volume black 384-well plates (Greiner Bio-One), were composed of a final assay volume of 20 μl and were monitored in a Clariostar plate reader (BMG Labtech). The Aldol assay consisted of 4 μl of a serial dilution of ATP/ADP in assay buffer, 8 μl of PLC protein (concentration varied between PLC variants), and 8 μl of Aldol 518 myo-inositol-1-phosphate (final concentration in assay, 50 μM). […]
The XY-69 assay contained 4 μl of a serial dilution of ATP/ADP in assay buffer, 4 μl of PLC protein (concentration varied between PLC variants), and 12 μl of XY69 liposomes (final concentration in assay 1.2 mg/ml). A CLARIOstar plate reader (BMG Labtech) was used to measure the production of the fluorescent product. […] The initial linear rate of product generation was calculated and converted to a % inhibition when compared with the rate of PLC activity in the absence of nucleotide. […]

PLCγ1^S345F = experiment: PLC activity assay 1 (A1), PLCγ1 S345F variant; assay type: biochemical, human
Procedure: The effect of nucleotide inhibition on PLC activity was measured using either a membrane-based assay with the fluorescent substrate (XY-69) incorporated into liposomes or using a small soluble substrate, Aldol 518 myo-inositol-1-phosphate (Aldol). Both methods utilised the same PLC assay buffer [20 mM Hepes-KOH, 70 mM KCl, 3 mM EGTA, 2.97 mM CaCl2, 2 mM TCEP and fatty acid-free bovine serum albumin (FAF-BSA; 50 μg/ml) (pH 7.5)]. Both assays were performed in low volume black 384-well plates (Greiner Bio-One), were composed of a final assay volume of 20 μl and were monitored in a Clariostar plate reader (BMG Labtech). […] The excitation and emission wavelengths were 588–15 and 642–20, respectively.
A CLARIOstar plate reader (BMG Labtech) was used to measure the production of the fluorescent product. The excitation and emission wavelengths were 485–15 and 520–20, respectively. Each experiment was performed in at least triplicate; in many cases, nine-fold replicates were generated. The enzyme progress curves were plotted for each concentration of nucleotide using Graphpad Prism software. The initial linear rate of product generation was calculated and converted to a % inhibition when compared with the rate of PLC activity in the absence of nucleotide. […]

SMILES	Kd (PLCγ1^K491D)	effect on PLC activity of PLCδ1 (PLCδ1)	IC50 relative to PLCγ1^wt (fold higher) (PLCγ1^S345F)
Nc1ncnc2c1ncn2[C@@H]1O[C@H](COP(=O)(O)OP(=O)(O)O)[C@@H](O)[C@H]1O [ADP]	1000 to 2000 µM	not affected	5–7 fold
Nc1ncnc2c1ncn2[C@@H]1O[C@H](COP(=O)(O)OP(=O)(O)OP(=O)(O)O)[C@@H](O)[C@H]1O [ATP]	~700 µM	not affected	–
